Data on one compound can be found in patent publication US11412737B2, “Mixtures of beflubutamid or optically enriched forms thereof with a second herbicide” (FMC Corporation, priority 2016, dated 2022).

One test relates to Velvetleaf (ABUTH). The test is described as follows: pre-emergence test, weed control. It counts as in vivo, Abutilon theophrasti. The settings on record: pre-emergent, 21 DAT, rate g ai/ha by row: r4 94, r5 125, r6 250, r7 125, r8 250, r9 500, r10 94+125, r11 125+125, r12 94+250, r13 125+250, r14 94+500, r15 125+500. As to the method:
(§1) Test compositions containing the test compounds were diluted with water to provide the appropriate test rate concentrations.
(§2) For pre-emergence testing, four disposable fiber flats (6 inch by 10 inch) for each rate of application of each herbicide solution were filled with top soil, to which seeds of each species were planted in furrows made by a template pressed on the top of the soil. The furrows were covered with soil after planting the seed and were watered well before application of the test compounds.
(§3) Fiber flats designated for treatment were placed in a spray chamber having a static platform and a movable sprayer and the height of the spray nozzle was 10.5 inches above the soil level. Once the sprayer was calibrated using water for spray volume of 30 gallons per acre, flats were sprayed with sprayer at a speed to receive a coverage equivalent of 30 gallons per acre. The application rates are those shown in the Tables below for the individual herbicidal solutions and the herbicide compositions of this invention. The pre-emergence flats were immediately placed in the greenhouse and watered lightly after treatment. Thereafter they were regularly watered and fertilized for the duration of the test.
(§4) The control of weeds was evaluated in each experimental test at 21 for wheat and 28 days after treatment (DAT) for all species. Data were analyzed using Minitab software at 95% confidence interval. The results, shown as an average of the replications, were compared with results observed in untreated control flats in the same tests. Percent control was determined by a method similar to the 0 to 100 rating system disclosed in “Research Methods in Weed Science,” 2nd ed., B. Truelove, Ed.; Southern Weed Science Society; Auburn University, Auburn, Ala., 1977. The rating system is as follows in Table 1.

A further test relates to Common chickweed (STEME). The test is described as follows: pre-emergence test, weed control. It counts as in vivo, Stellaria media. Conditions: pre-emergent, 28 DAT; BFL at 187.5 g, PYX at 90 g, combination of both. As to the method: as §1, §2
Fiber flats designated for treatment were placed in a spray chamber having a static platform and a movable sprayer and the height of the spray nozzle was 10.5 inches above the soil level. Once the sprayer was calibrated using water for spray volume of 30 gallons per acre, flats were sprayed with sprayer at a speed to receive a coverage equivalent of 30 gallons per acre. […]
The control of weeds was evaluated in each experimental test at 21 for wheat and 28 days after treatment (DAT) for all species. Data were analyzed using Minitab software at 95% confidence interval. […] Percent control was determined by a method similar to the 0 to 100 rating system disclosed in “Research Methods in Weed Science,” 2nd ed., B. Truelove, Ed.; Southern Weed Science Society; Auburn University, Auburn, Ala., 1977. […]

The subject of another test is Cheat grass (BROSE). Put plainly: post-emergence test, weed control. It counts as in vivo. Conditions: post-emergent, 28 DAT, height 7 cm, rate g ai/ha by row: r7 94, r8 125, r9 188, r10 125, r11 250, r12 94+125, r13 125+125, r14 188+125, r15 94+250, r16 125+250, r17 188+250.
A further test has as its system Rice flatsedge (CYPIR). Put plainly: post-emergence test, weed control. The settings on record: post-emergent, 28 DAT, height 1-2 cm, rate g ai/ha by row: r25 94, r26 125, r27 188, r28 125, r29 250, r30 94+125, r31 125+125, r32 188+125, r33 94+250, r34 125+250, r35 188+250. The format is in vivo.
A further test has as its system Large crabgrass (DIGSA). The test is described as follows: post-emergence test, weed control. The format is in vivo. Conditions: post-emergent, 28 DAT; BFL at 188 g/ha, DCI at 125 g/ha, combination of both.
Another test deals with Common ragweed (AMBEL). Put plainly: post-emergence test, weed control. The format is in vivo. Conditions: post-emergent, 28 DAT, height 3-4 cm, rate g ai/ha by row: r7 94, r8 125, r9 188, r10 125, r11 250, r12 94+125, r13 125+125, r14 188+125, r15 94+250, r16 125+250, r17 188+250.
A further test has as its system Shattercane (SOBIA). The test is described as follows: post-emergence test, weed control. The format is in vivo. Conditions: post-emergent, 28 DAT, height 8 cm; rate g ai/ha by row: r25 94, r26 125, r27 188, r28 125, r29 250, r30 94+125, r31 125+125, r32 188+125, r33 94+250, r34 125+250, r35 188+250.
Test [1] has as its system Littleseed canarygrass (PHAMI). The test is described as follows: post-emergence test, weed control. It counts as in vivo, Phalaris minor. The settings on record: post-emergent, 28 DAT, height 7-8 cm, rate g ai/ha by row: r25 94, r26 125, r27 188, r28 125, r29 250, r30 94+125, r31 125+125, r32 188+125, r33 94+250, r34 125+250, r35 188+250. The protocol: as §1
For post-emergence testing, seeds of each species for each rate of application of each herbicide solution were planted in 7.5 cm×7.5 cm plastic pots filled with potting soil. The seeds were germinated and the resulting plants were allowed to grow in a greenhouse until they reached a growth stage, such as height, suitable for testing. Treatments were applied using compressed air in a track spray chamber at 30 gallons/acre (280 L/ha) using a TeeJet 8001E nozzle at 40 psi (2.76 bars). Pots of post-emergent treated plants were returned to the greenhouse and not watered for 24 hours after treatment. Thereafter they were regularly watered and fertilized for the duration of the test.
as §4

The next test has as its system beggerticks (BIDPI). The test is described as follows: post-emergence test, weed control. It counts as in vivo, Bidens pilosa. Conditions: post-emergent, 28 DAT, COC 1%, rate g ai/ha by row: r5 94, r6 125, r7 250, r8 1.25, r9 2.5, r10 5, r11 94+1.25, r13 125+1.25, r15 94+2.5, r17 125+2.5, r19 94+5, r21 125+5. As to the method:
as §1
For post-emergence testing, seeds of each species for each rate of application of each herbicide solution were planted in 7.5 cm×7.5 cm plastic pots filled with potting soil. The seeds were germinated and the resulting plants were allowed to grow in a greenhouse until they reached a growth stage, such as height, suitable for testing. […] Pots of post-emergent treated plants were returned to the greenhouse and not watered for 24 hours after treatment. Thereafter they were regularly watered and fertilized for the duration of the test.
The control of weeds was evaluated in each experimental test at 21 for wheat and 28 days after treatment (DAT) for all species. […] The rating system is as follows in Table 1.

The subject of a further test is Jimsonweed (DATST). Put plainly: pre-emergence test, weed control. The format is in vivo, Datura stramonium. The settings on record: pre-emergent, 28 DAT, combination of both. The protocol: as §1, §2, §3, §4

The structures appear in SMILES notation.

For `CCC(Oc1ccc(F)c(C(F)(F)F)c1)C(=O)NCc1ccccc1` (racemic) [BFL, 2-[4-fluoro-3-(trifluoromethyl)phenoxy]-N-(phenylmethyl)butanamide], the “percentage of weed control, Velvetleaf ABUTH” value with Velvetleaf (ABUTH) (94 g ai/ha) is on record as 10%; with Velvetleaf (ABUTH) (125 g ai/ha), 15%; with Velvetleaf (ABUTH) (250 g ai/ha) it was 14%. Further, in the test on Common chickweed (STEME), the “control of common chickweed” value was 6%. Besides, the “percentage of weed control, BROSE” value in the test with Cheat grass (BROSE) (94 g ai/ha) came out at 0%; with Cheat grass (BROSE) (188 g ai/ha), 6%. For the same compound, the “percentage of weed control, CYPIR” value came to 0% with Rice flatsedge (CYPIR) (94 g ai/ha) and 4% in the test with Rice flatsedge (CYPIR) (188 g ai/ha). In the test on Large crabgrass (DIGSA), the “control of large crabgrass (DIGSA)” value is 19%. Moreover, the “percentage of weed control, AMBEL” value in the test on Common ragweed (AMBEL) (94 g ai/ha) was found to be 5%; with Common ragweed (AMBEL) (125 g ai/ha), 6%; in the test on Common ragweed (AMBEL) (188 g ai/ha), 12%. In addition, in the test on Shattercane (SOBIA), the “percentage of weed control, SOBIA” value was found to be 0%. The “percentage of weed control, PHAMI” value turned out to be 0% in test [1] (94 g ai/ha) and 1% in test [1] (188 g ai/ha). For the same compound, the “percentage of weed control, Beggerticks BIDPI” value was 5% with beggerticks (BIDPI) (BFL at 94 g ai/ha) and 10% with beggerticks (BIDPI) (BFL at 125 g ai/ha). For the same compound, the control of jimsonweed came out at 4% in the test on Jimsonweed (DATST) (BFL at 62.5 g, PTX at 90 g) and 30% with Jimsonweed (DATST) (BFL at 187.5 g, PYX at 90 g).
